Measurements taken from ChEMBL document CHEMBL4052797, “N-alkyl-[1,1'-biphenyl]-2-sulfonamide derivatives as novel broad spectrum anti-epileptic drugs with efficacy equivalent to that of sodium valproate” (2017).
Active and inactive are the calls of the source.

Columns and labels:
Mus musculus [1] = assay: Anticonvulsant activity in maximal electroshock induced seizure mouse model assessed as reduction in convulsions at 100 mg/kg, po; assay type: functional, organism-based
Mus musculus [2] = assay: Anticonvulsant activity in maximal electroshock induced seizure mouse model assessed as reduction in convulsions at 50 mg/kg, po; assay type: functional, organism-based
Mus musculus [3] = assay: Anticonvulsant activity in maximal electroshock induced seizure mouse model assessed as reduction in convulsions at 25 mg/kg, po; assay type: functional, organism-based
Mus musculus [4] = assay: Anticonvulsant activity in subcutaneous pentylenetetrazole-induced seizure mouse model assessed as reduction in convulsions at 100 mg/kg, po; assay type: functional, organism-based
Rattus norvegicus [5] = assay: Anticonvulsant activity in amygdala kindling rat model assessed as change in after discharge threshold at 100 mg/kg, po relative to control; assay type: functional
Mus musculus [6] = assay: Anticonvulsant activity in po dosed subcutaneous pentylenetetrazole-induced seizure mouse model assessed as reduction in convulsions; assay type: functional
Rattus norvegicus [7] = assay: Anticonvulsant activity in amygdala kindling rat model assessed as change in after discharge duration at 100 mg/kg, po (reference value: -5.5%); assay type: functional
Mus musculus [8] = assay: Anticonvulsant activity in po dosed maximal electroshock induced seizure mouse model assessed as reduction in convulsions; assay type: functional
Rattus norvegicus [9] = assay: Anticonvulsant activity in amygdala kindling rat model assessed as change in after discharge threshold at 30 mg/kg, po relative to control; assay type: functional
Rattus norvegicus [10] = assay: Anticonvulsant activity in amygdala kindling rat model assessed as change in after discharge duration at 30 mg/kg, po (reference value: -5.5%); assay type: functional
Mus musculus [11] = assay: Therapeutic index, ratio of TD50 for neurotoxicity in po dosed mouse to ED50 for po dosed 6-Hz induced seizure mouse model
Mus musculus [12] = assay: Therapeutic index, ratio of TD50 for neurotoxicity in po dosed mouse to ED50 for po dosed maximal electroshock induced seizure mouse model
Mus musculus [13] = assay: Neurotoxicity in po dosed mouse by rotarod test; assay type: functional
Mus musculus [14] = assay: Anticonvulsant activity in po dosed 6-Hz induced seizure mouse model; assay type: functional
Mus musculus [15] = assay: Anticonvulsant activity in subcutaneous pentylenetetrazole-induced seizure mouse model assessed as reduction in convulsions at 50 mg/kg, po; assay type: functional, organism-based
Mus musculus [16] = assay: Anticonvulsant activity in subcutaneous pentylenetetrazole-induced seizure mouse model assessed as reduction in convulsions at 25 mg/kg, po; assay type: functional, organism-based
Rattus norvegicus [17] = assay: Anticonvulsant activity in amygdala kindling rat model assessed as change in after discharge duration at 600 mg/kg, po (reference value: -5.5%); assay type: functional
Rattus norvegicus [18] = assay: Anticonvulsant activity in amygdala kindling rat model assessed as change in after discharge duration at 300 mg/kg, po (reference value: -5.5%); assay type: functional
Rattus norvegicus [19] = assay: Anticonvulsant activity in amygdala kindling rat model assessed as change in after discharge threshold at 300 mg/kg, po relative to control; assay type: functional
Rattus norvegicus [20] = assay: Anticonvulsant activity in amygdala kindling rat model assessed as change in after discharge threshold at 600 mg/kg, po relative to control; assay type: functional
Mus musculus [21] = assay: Anticonvulsant activity in ip dosed maximal electroshock induced seizure mouse model assessed as suppression in hindlimb tonic extension; assay type: functional
Mus musculus [22] = assay: Anticonvulsant activity in ip dosed subcutaneous pentylenetetrazole-induced seizure mouse model assessed no observable episode of clonic seizure; assay type: functional

NS(=O)(=O)c1ccccc1-c1ccccc1
Activity (Mus musculus [1]): Active
Activity (Mus musculus [2]): Active

CNS(=O)(=O)c1ccccc1-c1ccc(Cl)cc1
Activity (Mus musculus [1]): Active
Activity (Mus musculus [3]): inactive

CN(C)S(=O)(=O)c1ccccc1-c1ccoc1
Activity (Mus musculus [1]): inactive

O=S(=O)(c1ccccc1-c1ccccc1)C(F)(F)F
Activity (Mus musculus [4]): inactive
Activity (Mus musculus [1]): inactive

CNS(=O)(=O)c1ccccc1-c1cccc(Cl)c1
Activity (Mus musculus [1]): Active
Activity (Mus musculus [3]): inactive

CN(C)S(=O)(=O)c1ccccc1-c1cccs1
Activity (Mus musculus [4]): inactive
Activity (Mus musculus [1]): inactive

CN(C)S(=O)(=O)c1ccccc1-c1ccncc1
Activity (Mus musculus [1]): inactive

NS(=O)(=O)Cc1noc2ccccc12 [ZONISAMIDE]
Activity (Rattus norvegicus [5]): 45.9%
ED50 (Mus musculus [6]): > 500 mg/kg
Activity (Rattus norvegicus [7]): -37.6%
ED50 (Mus musculus [8]): 20 mg/kg
Activity (Rattus norvegicus [9]): 5.1%
Activity (Rattus norvegicus [10]): 7%

CNS(=O)(=O)c1ccccc1-c1ccccc1F
Activity (Rattus norvegicus [5]): 352.5%
Ratio TD50/ED50 (Mus musculus [11]): 2
Activity (Mus musculus [4]): Active
Ratio TD50/ED50 (Mus musculus [12]): 6.7
Activity (Rattus norvegicus [7]): -1.4%
TD50 (Mus musculus [13]): 107 mg/kg
ED50 (Mus musculus [8]): 16 mg/kg
ED50 (Mus musculus [14]): 53 mg/kg
Activity (Mus musculus [1]): Active
Activity (Mus musculus [15]): Active
Activity (Mus musculus [2]): Active
Activity (Mus musculus [3]): Active

CN(C)S(=O)(=O)c1cccc(Cl)c1
Activity (Mus musculus [2]): Active

CCNS(=O)(=O)c1ccccc1-c1ccccc1
Activity (Mus musculus [16]): inactive
Activity (Mus musculus [1]): Active
Activity (Mus musculus [2]): Active
Activity (Mus musculus [3]): inactive

CNS(=O)(=O)c1ccccc1-c1ccc(F)cc1
Activity (Mus musculus [4]): inactive
Activity (Mus musculus [1]): Active
Activity (Mus musculus [2]): Active

CNS(=O)(=O)c1ccccc1-c1ccccc1OC
Activity (Mus musculus [4]): inactive
Activity (Mus musculus [1]): inactive

CNS(=O)(=O)c1ccccc1-c1ccc(OC)cc1
Activity (Mus musculus [4]): inactive
Activity (Mus musculus [1]): inactive

CCS(=O)(=O)c1ccccc1-c1ccccc1
Activity (Mus musculus [4]): Active
Activity (Mus musculus [1]): inactive

CNS(=O)(=O)c1ccccc1-c1cccc(F)c1
Activity (Mus musculus [1]): Active
Activity (Mus musculus [3]): inactive

CN(C)S(=O)(=O)c1ccccc1-c1ccco1
Activity (Mus musculus [1]): inactive

CS(=O)(=O)c1ccccc1-c1ccccc1F
Activity (Mus musculus [1]): Active

CNS(=O)(=O)c1ccccc1-c1ccccc1
Activity (Mus musculus [1]): Active
Activity (Mus musculus [15]): inactive
Activity (Mus musculus [2]): Active

CN(C)S(=O)(=O)c1ccccc1-c1ccccc1
Activity (Mus musculus [15]): inactive
Activity (Mus musculus [2]): inactive

CN(C)S(=O)(=O)c1ccccc1-c1ccccn1
Activity (Mus musculus [4]): inactive

CCCNS(=O)(=O)c1ccccc1-c1ccccc1
Activity (Mus musculus [1]): Active

CNS(=O)(=O)c1ccccc1-c1ccccc1Cl
Activity (Mus musculus [1]): Active
Activity (Mus musculus [2]): Active

CNS(=O)(=O)c1ccccc1-c1cccc(OC)c1
Activity (Mus musculus [1]): inactive

CCCC(CCC)C(=O)[O-].[Na+] [VALPROATE SODIUM]
Activity (Rattus norvegicus [17]): -22.5%
TD50 (Mus musculus [13]): 396 mg/kg
ED50 (Mus musculus [8]): 337 mg/kg
Activity (Rattus norvegicus [18]): 11.1%
ED50 (Mus musculus [14]): 394 mg/kg
Activity (Rattus norvegicus [19]): -5.4%
Activity (Rattus norvegicus [20]): 81.3%

CC1(C)O[C@@H]2[C@@H](CO[C@@]3(COS(N)(=O)=O)OC(C)(C)O[C@@H]23)O1 [TOPIRAMATE]
ED50 (Mus musculus [21]): 33 mg/kg
ED50 (Mus musculus [22]): > 800 mg/kg

CN(C)S(=O)(=O)c1ccccc1-c1cccnc1
Activity (Mus musculus [4]): inactive
